In this assay the test system is 3T3L-1 mouse pre-adipocyte cells. As to the kind of experiment: Brown adipose marker expression in differentiating 3T3L-1 preadipocytes. It counts as cell-based. On the procedure: A. 3T3L-1 mouse preadipocyte cells in 6 well plates were allowed to reach full confluence. Two days following confluence (designated as day 0), the growth medium was replaced with differentiation medium (DM). After two days of incubation in DM, this medium was replaced with insulin medium (Ins) and the cells were incubated in Ins for 2 days and then the insulin medium was replaced with growth medium (GM) and the cells were cultured for a total of 10 days (starting from day 0). The cells were treated with vehicle (0.1% DMSO) or ULMA (10 nM in 0.1% DMSO) on day 0 and the total treatment duration was 10 days. In all cases, medium was replaced with fresh corresponding medium every day containing vehicle (0.1% DMSO) or 10 nM ULMA (in DMSO; final DMSO concentration in all wells 0.1% vol/vol). After a total of 10 days from day 0, cells were washed in cold PBS and RNA was extracted using trizol reagent using standard procedure following which cDNA synthesis was done and UCP-1, UCP-2, PGC-1α and PRDM16 expression were determined using QRT-PCR, normalized with Beta-actin mRNA and plotted as fold induction over vehicle treated control. Data is mean±SEM of three independent experiments performed in triplicates. **p<0.01 as determined by two tailed unpaired student's t-test.
C. Cells from identical set of experiments as described in FIGS. 5A and 5B or human SVFs prepared by collagenase digestions were analyzed by western blot analysis for determination of UCP-1, UCP-2 and PGC-1α protein level. Beta-actin was used as a loading control. Data is representative of three independent experiments.
Adiponectin has previously been described to enhance mitochondrial function in adipose tissues and induces its thermogenic potential and therefore causes a conversion towards brown adipose phenotype characterized by an increase in UCPs, in particular UCP-1 (I. B. Bauche, S. A. E. Mkadem, A-M. Pottier, M. Senou, M-C. Many, R. Rersohazy, L. Penicaud, N. Maeda; T. Funahashi, S. M. Brichard. Endocrinology 148(4):1539-1549. 2007). Therefore, the ability of ULMA to induce UCP-1 and 2 in different stages of adipocyte differentiation was checked. We also checked other brown adipose markers such as PGC-1α and PR domain containing 16 (PRDM16). 3T3L-1 mouse pre-adipocyte cells (ATCC, CL-173) maintained in growth medium (DMEM with 4.5 mg/ml glucose, 4.0 mM glutamine, 1 mM sodium pyruvate, 10% FBS and 1× antibiotic-antimycotic solution (all reagents from invitrogen)) were plated in 6 well plates and allowed to reach full confluence. […] After two days of incubation in differentiation medium, this medium was replaced with insulin medium (DMEM, 10% FBS, plus 1.5 μg/ml insulin) and the cells were incubated in insulin medium for 2 days and then the insulin medium was replaced with growth medium and the cells were then cultured for total of 10 days (from day 0). For ULMA treatment, the cells were treated on day 0 (the day on which differentiation medium was added), and the treatment was continued for a total of 10 days. In all cases, medium was replaced with fresh medium containing vehicle (0.1% DMSO) or 10 nM ULMA every day. After 10 days from day 0, cells were washed in cold PBS and RNA was extracted using trizol reagent using standard procedure following which cDNA synthesis was done and transcript expression was determined using QRT-PCR as described above.
For western blot-based determination of UCP-1, UCP-2 and PGC-1α protein level, cells from an identical set of experiment were lysed and western blotted with UCP-1, UCP-2 (Abcam), PGC-1α(Calbiochem), or beta-actin (cell signaling technology; used as a loading control) as described above.

[1] abbreviates: 10 nM, 10 days of differentiation.
[2] abbreviates: differentiated in presence of ULMA, 10 days.

Here are results for 1 compound from US20160193240A1, “Ulmoside-A: Useful For Prevention Or Cure Of Metabolic Diseases” (COUNCIL OF SCIENTIFIC & INDUSTRIAL RESEARCH, priority 2013, published 2016).

As for `O=C1c2c(cc(O)c([C@@H]3O[C@H](CO)[C@@H](O)[C@H](O)[C@H]3O)c2O)O[C@@H](c2ccc(O)c(O)c2)[C@@H]1O` [ULMA, (2S,3S)-(+)-3′,4′,5,7-tetrahydroxydihydroflavonol-6-C-β-D-glucopyranoside], under setting [1], the “PGC-1α mRNA level” value is “significant increase”, the “PRDM16 mRNA level” value is “significant increase”, the “UCP-1 mRNA level” value is given as “significant increase” and the “UCP-2 mRNA level” value is “significant increase”. Further, under setting [2], the PGC-1α protein level result is reported as “elevated” and the UCPs protein level result was “elevated”.
